Experimental data: patent US20240401044A1, “EXPLOITING IL33 SECRETION AS A THERAPEUTIC TARGET IN CANCER” (ROSWELL PARK CANCER INSTITUTE CORPORATION HEALTH RESEARCH, …, priority 2021, published 2024)

Columns and labels:
IL33 expression = assay: Western blot of IL33 expression in PDAC cell lines treated with MEK and PI3K/AKT inhibitors; assay type: cell-based, mouse; conditions: cell lines derived from KPC tumor model of PDAC; inhibitor treatment for 24 hrs
Procedure: Results are shown as mean ±SEM. P values were calculated using Student t test. Chi-square test and spearman's correlation analysis was done for human PDAC TMA for statistical significance.
The above in silico findings were further validated by western blot analysis showing a complete loss of IL33 expression upon abolishing Kras* signaling (FIG. 3F-G, FIG. 4A-B). We further validated this finding using cell lines derived from KPC tumor model of PDAC (FIG. 1A).
Primary mouse cell lines were established in the laboratory (PJ-B6-4291, PJ-B6-4298) or gift from Dr. Ronald DePinho (AK-B6, AK14838, AK192, HY19636, HY15559) as described previously and were routinely cultured in RPMI 1640 (Invitrogen) 10% FBS (Invitrogen), 100 U/ml penicillin and 100 U/ml streptomycin. For inducible Kras derived cell lines, 1 μg/ml of doxycycline was directly added to the media. The cell lines were mycoplasma free, based on tests done monthly in the laboratory using Lonza's MycoAlert Mycoplasma Detection Kit assays with confirmatory tests by PCR-based assays.
Medium was removed and the cells were washed twice in ice-cold phosphate-buffered saline (PBS), scraped and collected as pellets after centrifugation at 1700 g for 5 min. The pelleted cells were incubated in radio immune precipitation assay (RIPA) buffer with proteinase and phosphatase inhibitors for 15 min. Lysates were then collected and centrifuged at 12000 rpm for 15 min at 4° C. Protein concentrations were measured using the DC Protein Assay Kit (Biorad, Cat. No. 5000111). SDS-PAGE and immunoblotting were performed as described previously in pre-cast bis-Tris 4-20% gradient gels (Invitrogen). The following antibodies were used: IL33 (R & D system AF3626); pAKT-S473 (CST 9271); pERK-p44/42 (CST 4370) and […] (Sigma-Aldrich, A2228).

IL33 = assay: IHC and IF of IL33 in fungal-depleted PDAC tumors; assay type: in vivo, mouse; conditions: fungal-depleted tumors after amphotericin B course (FIG. 9H)
Procedure: To further test the role of fungi in IL33 secretion and recruitment of ILC2 and TH2 cells in the PDAC TME, we evaluated the effect of Alternaria and Malassezia administered by gavage to PDAC tumor-bearing mice (FIG. 9G). First, fungi resident in the mice were depleted by a course of amphotericin B (i.e., 5 doses of amphotericin B, 200 μg/day by oral gavage), followed by a maintenance dose of 0.5 μg/ml in the drinking water for […]. Following depletion of fungi, we administered either Malassezia globosa or Alternaria alternata (10^8 fungal spores per mouse) by oral gavage into the tumor-bearing mice. At 28 days post-fungal treatment, the tumors were harvested for analyses. […] Intratumoral fungal depletion and repopulation were confirmed by fungal FISH analysis (FIG. 9H). Further, 18S rRNA sequencing confirmed increased presence of Alternaria and Malassezia sp. in the tumor and stool of the mouse receiving fungal transplantation (FIG. 9I, FIG. 10D-F). […] Similarly, Malassezia globosa or Alternaria alternata administration augmented the infiltration of ILC2 (FIG. 9K) and TH2 (FIG. 10G) cell populations within the TME. […]
Harvested tissues were immediately fixed in 10% formalin overnight and embedded in paraffin. […] Immunofluorescence slides were imaged with an Leica confocal Microscope and quantified with ImageJ. […]

[1] = tested on: ILC2 and TH2 cells in PDAC tumors; assay: Flow cytometry of tumor infiltrating type 2 immune cells after antifungal treatment; assay type: in vivo, C57BL/6 mice; conditions: oral amphotericin B
Procedure: (§1) Followed by 3 weeks of amphotericin (0.5ug/ml) treatment in drinking water. After 3 weeks, PDAC cells were orthotopically transplanted and tumor progression studies were performed after 28-35 days. […] Red circles define the tumor boundaries. […] Followed by 3 weeks of amphotericin (0.5ug/ml) treatment in drinking water. After 3 weeks fungus (Alternaria alternata and Malassazia globose, 10^8 CFU/ml) was transplanted in mice. After 7 days of fungus transplantation, PDAC cells were orthotopically transplanted and tumor progression studies were performed after 28-35 days. […] Also, shown are the 18S rRNA sequencing in stool samples. Positive control-Alternaria is a sample of pure Alternaria culture. […] Scale bar 100 μm, unless indicated otherwise. Data are combined from three independent experiments and are presented as mean ±SEM, P values were calculated using Student t-test. ns, no significance.
For gastrointestinal fungal depletion, C57BL/6 mice were treated with 200 μg amphotericin B per day by oral gavage for five consecutive days, followed by 0.5 μg/ml amphotericin B treatment in drinking water for 21 days. Control groups were gavaged with 200 μl PBS for 5 consecutive days. After completion of antifungal treatment, species specific fungal repopulation was done with Alternaria alternata (ATCC 36376) and Malassezia globosa (MYA-4889). Fungi were administered (1×10^8 CFU/ml) by oral gavage. […]

[2] = tested on: orthotopically transplanted PDAC tumors; assay: Antifungal (fungal depletion) treatment of mice with orthotopically transplanted PDAC tumors: tumor burden and survival; assay type: in vivo, C57BL/6 mice
Procedure: as §1
For all experiments, C57BL/6J (Stock 000664) mice, aged 4-6 weeks were obtained from Jackson Laboratory unless otherwise mentioned. For orthotopic pancreas transplantation, mice were anaesthetized using isoflurane. A 2×2-mm portion of the left abdomen was shaved to facilitate transplantation. An incision was made in the left abdomen and the pancreas was gently exposed along with the spleen. Luciferase-expressing cells were slowly injected into the tail of the pancreas using a Hamilton syringe. Twenty microliters of cells (5×10^5) mixed with 20 μl Matrigel were injected. […]
Live in vivo imaging was performed at the Animal Imaging Facility at Roswell Park Comprehensive Cancer Center. […] Temperature and respiration were regulated using an MR-compatible small animal monitoring system (Model 1250, SAII, Stony Brook, NY.) Following scout scans, tumor burden was determined using multislice, fast spin echo scans in the axial and coronal planes. […] Tumor volumes were calculated by manual segmentation and voxel summation using commercially available, medical image processing software (Analyze 10.0, AnalyzeDirect, Overland Park, KS). […]

Nc1cc(C(F)(F)F)c(-c2cc(N3CCOCC3)nc(N3CCOCC3)n2)cn1 [Buparlisib]
IL33 expression (western blot) (IL33 expression): did not lead to a reduction in IL33 expression

O=C(NOCC1CC1)c1ccc(F)c(F)c1Nc1ccc(I)cc1Cl [CI-1040]
IL33 expression (western blot) (IL33 expression): complete inhibition of IL33 expression

CCn1c(-c2nonc2N)nc2c(C#CC(C)(C)O)ncc(OCC3CCCNC3)c21 (stereo not drawn) [GSK-690696]
IL33 expression (western blot) (IL33 expression): did not lead to a reduction in IL33 expression

C[C@@H]1[C@H](O)[C@@H](C)/C=C/C=C/C=C/C=C/C=C/C=C/C=C/[C@H](O[C@@H]2O[C@H](C)[C@@H](O)[C@H](N)[C@@H]2O)C[C@@H]2O[C@](O)(C[C@@H](O)C[C@@H](O)[C@H](O)CC[C@@H](O)C[C@@H](O)CC(=O)O[C@H]1C)C[C@H](O)[C@H]2C(=O)O [amphotericin B]
IL33 localisation in PDAC tumors (IHC and IF) (IL33): IL33 signal restricted predominantly to the nucleus of cancer cells | tumor infiltrating ILC2 ([1]; relative to total CD45 positive cells (FIG. 9E)): reduced tumor infiltrating ILC2 | tumor infiltrating TH2 cells ([1]; relative to total CD45 positive cells (FIG. 9F)): reduced | tumor burden (wet weight of PDAC tumors) ([2]; fungal depletion/repopulation experiment, 5 doses 200 μg/day by oral gavage, then 0.5 μg/ml in drinking water (FIG. 9J)): significantly decreased tumor burden | tumor burden ([2]; oral amphotericin B, orthotopic PDAC tumor-bearing mice (FIG. 9B-C, 10A)): decreased tumor burden | survival ([2]; oral amphotericin B, orthotopic PDAC tumor-bearing mice (FIG. 9D)): increased survival
